# Assay results reported in patent publication US20030157670A1 (priority 2002, published 2003).
# Tests used:
# [1] = system: capsaicin decomposing/synthesizing enzyme (purified enzyme from Streptomyces mobaraensis IFO13819); assay: Synthesis of capsaicin analogs from vanillylamine and fatty acids with the enzyme of the invention; assay type: biochemical; settings: vanillylamine hydrochloride 10 mM, fatty acid 100 mM, 30 U enzyme, water/n-hexane, 37° C., 8 days, 0.5 mM CoCl2
# Method: Next, capsaicin analogs were synthesized by using the capsaicin decomposing/synthesizing enzyme (purified enzyme from Streptomyces mobaraensis IFO13819) according to the present invention.
# (§1) The reaction temperature was 37° C.
# (§2) As a comparative example, aminoacylase was used. The resulting capsaicin analogs were quantitatively measured by the HPLC analysis of the hexane phases.
# [2] = system: capsaicin decomposing/synthesizing enzyme (purified enzyme); assay type: biochemical, Streptomyces mobaraensis IFO 13819
# [3] = system: capsaicin decomposing/synthesizing enzyme; assay type: biochemical, Streptomyces mobaraensis IFO 13819
# aminoacylase = assay: Synthesis of capsaicin analogs from vanillylamine and fatty acids with aminoacylase (comparative example); assay type: biochemical; settings: vanillylamine hydrochloride 10 mM, fatty acid 100 mM, water/n-hexane, 37° C., 8 days, 0.5 mM CoCl2
# Method: as §1, §2
Compound,"Synthesis of capsaicin analogs, Capsaicin decomposing synthesizing enzyme of the invention [1] [mM]",effect on capsaicin hydrolysis activity of the purified enzyme [2],"residual activity, cobalt ions added versus not added [3]","Synthesis of capsaicin analogs, Aminocylase (aminoacylase) [mM]"
CCCCCCCCCCCCCC(=O)O [Myristic acid],0.24,–,–,–
[Cl-].[Cl-].[Co+2] [CoCl2],–,enhanced,higher residual activity,–
CCCCCCCCCCCC(=O)O [Lauric acid],1.25,–,–,0.051
